Data reported in the supplement of paper PMC13380429.

Key:
Conditions in all cases: 72 h
Calu-3 [1] = assay: cell viability relative to DMSO; higher = less toxic
U2OS [2] = assay: as above
HepG2 [3] = assay: as above
Vero E6 [4] = assay: as above
Caco-2 [5] = assay: as above
Calu-3 [6] = assay: drug sensitivity score (DSS) for viability; higher = more toxic; extreme values may be limits of the assay
U2OS [7] = assay: as above
HepG2 [8] = assay: as above
Vero E6 [9] = assay: as above
Caco-2 [10] = assay: as above
Caco-2 [11] = assay: relative viability EC50 (midpoint between 100% and the lowest measured viability); higher = less toxic
Calu-3 [12] = assay: as above
HepG2 [13] = assay: as above
U2OS [14] = assay: as above

Compound | cell viability (Calu-3 [1]; 1 nM) | cell viability (Calu-3 [1]; 10 nM) | cell viability (Calu-3 [1]; 100 nM) | cell viability (Calu-3 [1]; 1000 nM) | cell viability (Calu-3 [1]; 10000 nM) | cell viability (U2OS [2]; 1 nM) | cell viability (U2OS [2]; 10 nM) | cell viability (U2OS [2]; 100 nM) | cell viability (U2OS [2]; 1000 nM) | cell viability (U2OS [2]; 10000 nM) | cell viability (HepG2 [3]; 1 nM) | cell viability (HepG2 [3]; 10 nM) | cell viability (HepG2 [3]; 100 nM) | cell viability (HepG2 [3]; 1000 nM) | cell viability (HepG2 [3]; 10000 nM) | cell viability (Vero E6 [4]; 1 nM) | cell viability (Vero E6 [4]; 10 nM) | cell viability (Vero E6 [4]; 100 nM) | cell viability (Vero E6 [4]; 1000 nM) | cell viability (Vero E6 [4]; 10000 nM) | cell viability (Caco-2 [5]; 1 nM) | cell viability (Caco-2 [5]; 10 nM) | cell viability (Caco-2 [5]; 100 nM) | cell viability (Caco-2 [5]; 1000 nM) | cell viability (Caco-2 [5]; 10000 nM) | drug sensitivity score (Calu-3 [6]) | drug sensitivity score (U2OS [7]) | drug sensitivity score (HepG2 [8]) | drug sensitivity score (Vero E6 [9]) | drug sensitivity score (Caco-2 [10]) | relative viability EC50 (Caco-2 [11]) | relative viability EC50 (Calu-3 [12]) | relative viability EC50 (HepG2 [13]) | relative viability EC50 (U2OS [14])
Nc1cc(F)ccc1NC(=O)/C=C/c1cnn(C/C=C/c2ccccc2)c1 [RGFP966] | 99.3% | 106% | 89.2% | 87.6% | 51.4% | 92.9% | 104% | 92.2% | 89.5% | 68.6% | 93.2% | 105% | 96.4% | 87.2% | 52.4% | 104% | 106% | 105% | 95.9% | 66.2% | 100% | 98.9% | 92.6% | 91.2% | 76.7% | 4.1 | 2.2 | 4.4 | 2.2 | 1.4 | > 10 µM | – | – | –
COc1cc2c(NC3CCN(CC4CCCCC4)CC3)nc(N3CCCN(C(C)C)CC3)nc2cc1OCCCN1CCCCC1 [UNC0631] | 103% | 97.2% | 104% | 103% | 18.9% | 102% | 102% | 102% | 98.7% | 74.2% | 104% | 111% | 100% | 96.3% | 0.2% | 93.4% | 97.1% | 88.6% | 93% | 50.9% | 97.7% | 104% | 103% | 84.4% | 83.2% | 4.3 | 1.2 | 6.1 | 3.8 | 1.6 | > 10 µM | 3.36 µM | 2.89 µM | –
Cn1c(=O)c2c(ncn2C)n(C)c1=O [caffeine] | – | – | – | – | – | – | – | – | – | – | – | – | – | – | – | – | – | – | – | – | – | – | – | – | – | 0 | 0 | 0 | 0 | – | – | – | – | –
CN1C[C@@H]2C[C@H]1CN2c1cc2c(cc1F)c(=O)c(C(=O)O)cn2C1CC1 [danofloxacin] | – | – | – | – | – | – | – | – | – | – | – | – | – | – | – | – | – | – | – | – | – | – | – | – | – | 0 | 0 | 0 | 0 | – | – | – | – | –
Cc1ccc(NC2=NCCN2)c(Cl)c1 [tolonidine] | 101% | 112% | 96.5% | 106% | 99.3% | 101% | 106% | 97.3% | 102% | 96.3% | 116% | 109% | 109% | 99% | 111% | – | – | – | – | – | 90.3% | 101% | 93.9% | 99% | 99.5% | 0 | 0 | 0 | – | 0 | > 10 µM | > 10 µM | > 10 µM | > 10 µM
O=C(O)c1ccccc1O [salicylic-acid] | 105% | 91.8% | 90.6% | 88.9% | 105% | 99.8% | 99.6% | 98.5% | 96.5% | 102% | 95.4% | 96.1% | 99.3% | 97% | 108% | – | – | – | – | – | 103% | 97% | 105% | 94.7% | 96.6% | 0 | 0 | 0 | – | 0 | > 10 µM | > 10 µM | > 10 µM | > 10 µM
O=S(=O)(F)Cc1ccccc1 [phenylmethylsulfonyl-fluoride] | 105% | 101% | 103% | 98.6% | 102% | 106% | 99.8% | 104% | 102% | 101% | 109% | 114% | 97.8% | 111% | 96.7% | – | – | – | – | – | 102% | 95.6% | 103% | 99.7% | 99.2% | 0 | 0 | 0 | – | 0 | > 10 µM | > 10 µM | > 10 µM | > 10 µM
CC#CC(=O)N1CC[C@@H](n2c(=O)n(-c3ccc(Oc4ccccc4)cc3)c3c(N)ncnc32)C1 [ONO-4059] | 91.2% | 96.7% | 73.6% | 36% | 41.3% | 101% | 91.4% | 103% | 92.5% | 93.6% | 96.7% | 99.3% | 89.6% | 102% | 101% | 89.5% | 97.4% | 90.7% | 80.2% | 68.2% | 97.6% | 87% | 93.9% | 73.8% | 73.7% | 14.8 | 0 | 0 | 3.9 | 4.4 | – | 0.121 µM | > 10 µM | > 10 µM
